Experimental findings from patent US20240158392A1 (Janssen Biotech, Inc., priority 2021, published 2024) are described below.

Like-named read-outs stand apart in the source and are kept apart here.

The assay concerns the target SIK2 (Homo sapiens, UniProt Q9H0K1). Put plainly: SIK2 Enzymatic Assay High Version 2 (High ATP). Type of assay: biochemical. In outline:
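At room temperature, enzyme (6 nM, 2× final) was preincubated with compound for 30 min, then 6 mM ATP and 400 μM HDAC5tide (both 2× final) were added for 2 h. ADP formed was measured by ADP-Glo Max (2 h reagent, 1 h detection) using luminescence.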

The mark [1] stands for this setting: enzyme 6 nM, 6 mM ATP and 400 μM HDAC5tide (each 2× final concentration), 30 minutes pre-incubation, 2 hours, ADP-Glo Max luminescence, read-out: SIK2 high ATP IC50 (μM) (Test Example 2).

Broadly, the IC50 is the concentration that inhibits the measured activity by half.

SIK2, sequence (Q9H0K1 whole entry, species assumed): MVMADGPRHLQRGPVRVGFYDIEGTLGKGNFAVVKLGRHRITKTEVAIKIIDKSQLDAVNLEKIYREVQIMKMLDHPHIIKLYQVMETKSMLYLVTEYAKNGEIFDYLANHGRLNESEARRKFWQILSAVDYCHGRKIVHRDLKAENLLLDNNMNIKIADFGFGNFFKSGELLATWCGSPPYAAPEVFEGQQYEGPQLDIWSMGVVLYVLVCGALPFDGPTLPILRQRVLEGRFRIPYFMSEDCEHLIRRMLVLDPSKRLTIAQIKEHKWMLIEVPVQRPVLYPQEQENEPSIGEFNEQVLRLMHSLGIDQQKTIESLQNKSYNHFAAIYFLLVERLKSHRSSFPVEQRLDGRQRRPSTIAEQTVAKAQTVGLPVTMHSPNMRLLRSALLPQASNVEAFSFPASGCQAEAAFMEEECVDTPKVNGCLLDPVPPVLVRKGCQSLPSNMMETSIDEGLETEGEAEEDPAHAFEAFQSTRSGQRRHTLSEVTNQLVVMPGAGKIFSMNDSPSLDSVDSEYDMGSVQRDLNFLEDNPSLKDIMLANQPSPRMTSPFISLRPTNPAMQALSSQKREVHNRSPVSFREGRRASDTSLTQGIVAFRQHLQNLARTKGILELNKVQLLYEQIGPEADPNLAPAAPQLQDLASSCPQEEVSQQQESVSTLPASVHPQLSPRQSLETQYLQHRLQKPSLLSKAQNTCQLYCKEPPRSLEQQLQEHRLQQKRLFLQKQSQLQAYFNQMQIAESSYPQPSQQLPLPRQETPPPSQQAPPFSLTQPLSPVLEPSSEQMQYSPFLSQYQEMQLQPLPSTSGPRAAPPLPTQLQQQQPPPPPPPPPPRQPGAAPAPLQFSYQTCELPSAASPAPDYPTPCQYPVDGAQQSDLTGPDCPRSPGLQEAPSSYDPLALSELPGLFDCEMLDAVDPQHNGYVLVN

As to `Cc1cc(-c2ccn3nc(NC(=O)C4CC4)cc3c2)c(OC[C@@H](N)C(F)(F)F)cn1` [Example 570, N-[5-[5-[(2R)-2-amino-3,3,3-trifluoro-propoxy]-2-methyl-4-pyridyl]pyrazolo[1,5-a]pyridin-2-yl]cyclopropanecarboxamide], under setting [1], the IC50 was 0.0943 µM.
As for `Cc1cc(-c2ccn3nc(NC(=O)C4CC4)cc3c2)c(OC[C@@H]2CCCN2C)cn1` [Example 572, N-[5-[2-methyl-5-[[(2S)-1-methylpyrrolidin-2-yl]methoxy]-4-pyridyl]pyrazolo[1,5-a]pyridin-2-yl]cyclopropanecarboxamide], half-maximal inhibition (IC50) required 0.0787 µM.
Same read-out and setting: in the case of `Cc1cc(-c2ccn3nc(NC(=O)C4CC4)cc3c2)c(OC[C@@H]2CCN2CCF)cn1` [Example 573, N-[5-[5-[[(2S)-1-(2-fluoroethyl)azetidin-2-yl]methoxy]-2-methyl-4-pyridyl]pyrazolo[1,5-a]pyridin-2-yl]cyclopropanecarboxamide] it was 0.074 µM; in that of `Cc1cc(-c2ccn3nc(NC(=O)C4CC4)cc3c2)c(OC[C@H]2CCN2C2CC2)cn1` [Example 574, N-[5-[5-[[(2R)-1-cyclopropylazetidin-2-yl]methoxy]-2-methyl-4-pyridyl]pyrazolo[1,5-a]pyridin-2-yl]cyclopropanecarboxamide], 0.0804 µM; in that of `[2H]C([2H])([2H])N1CC[C@H]1COc1cnc(C)cc1-c1ccn2nc(NC(=O)C3CC3)cc2c1` [Example 575, N-[5-[2-methyl-5-[[(2S)-1-(trideuteriomethyl)azetidin-2-yl]methoxy]-4-pyridyl]pyrazolo[1,5-a]pyridin-2-yl]cyclopropanecarboxamide], 0.0703 µM.
Turning to `[2H]C([2H])([2H])N1CC[C@@H]1COc1cnc(C)cc1-c1ccn2nc(NC(=O)C3CC3)cc2c1` [Example 576, N-[5-[2-methyl-5-[[(2R)-1-(trideuteriomethyl)azetidin-2-yl]methoxy]-4-pyridyl]pyrazolo[1,5-a]pyridin-2-yl]cyclopropanecarboxamide], the IC50 is 0.0728 µM.
On to `Cc1cc(-c2ccn3nc(Nc4cc(C)nc(C)n4)cc3c2)c(OC2CC(NS(C)(=O)=O)C2)cn1` (stereo not shown) [Example 579, N-[3-[[4-[2-[(2,6-dimethylpyrimidin-4-yl)amino]pyrazolo[1,5-a]pyridin-5-yl]-6-methyl-3-pyridyl]oxy]cyclobutyl]methanesulfonamide], for which, under setting [1], the IC50 is 0.0666 µM.
On to `Cc1cc(-c2ccn3nc(Nc4cc(C)nc(C)n4)cc3c2)c(O[C@H]2C[C@H](NS(C)(=O)=O)C2)cn1` [Example 580, N-[3-[[4-[2-[(2,6-dimethylpyrimidin-4-yl)amino]pyrazolo[1,5-a]pyridin-5-yl]-6-methyl-3-pyridyl]oxy]cyclobutyl]methanesulfonamide], for which the concentration for half-maximal inhibition (IC50) under setting [1] is 0.00198 µM.
In the case of `Cc1cc(-c2ccn3nc(Nc4cc(C)nc(C)n4)cc3c2)c(O[C@H]2CC[C@H](C#N)CC2)cn1` [Example 581, (1r,4r)-4-((4-(2-((2,6-dimethylpyrimidin-4-yl)amino)pyrazolo[1,5-a]pyridin-5-yl)-6-methylpyridin-3-yl)oxy)cyclohexane-1-carbonitrile], the IC50 under setting [1] turned out to be 0.0838 µM.
The same measure, in the same setting: in the case of `N#Cc1cc(-c2ccn3nc(NC(=O)C4CC4)cc3c2)c(OC[C@H]2C[C@@H](NCc3ccccc3)C2)cn1` [Example 599, N-[5-[5-[[3-(benzylamino)cyclobutyl]methoxy]-2-cyano-4-pyridyl]pyrazolo[1,5-a]pyridin-2-yl]cyclopropanecarboxamide] it was 0.141 µM; in that of `O=C(Nc1cc2cc(-c3cc(C(F)(F)F)ncc3OC[C@@H]3CNCCO3)ccn2n1)C1CC1` [Example 601, N-[5-[5-[[(2S)-morpholin-2-yl]methoxy]-2-(trifluoromethyl)-4-pyridyl]pyrazolo[1,5-a]pyridin-2-yl]cyclopropanecarboxamide], 0.116 µM.
The compound `CCN1CC[C@H]1COc1cnc(C)cc1-c1ccn2nc(NC(=O)C3CC3)cc2c1` [Example 605, N-[5-[5-[[(2S)-1-ethylazetidin-2-yl]methoxy]-2-methyl-4-pyridyl]pyrazolo[1,5-a]pyridin-2-yl]cyclopropanecarboxamide] showed a concentration for half-maximal inhibition (IC50) of 0.316 µM.
As for `Cc1cc(-c2ccn3nc(Nc4cc(C)nc(C)n4)cc3c2)c(OC[C@@H]2C[C@H](O)CO2)cn1` [Example 606, (3S,5S)-5-[[4-[2-[(2,6-dimethylpyrimidin-4-yl)amino]pyrazolo[1,5-a]pyridin-5-yl]-6-methyl-3-pyridyl]oxymethyl]tetrahydrofuran-3-ol], the IC50 under setting [1] stood at 0.1 µM.
Take `Cc1cc(-c2ccn3nc(Nc4cc(C)nc(C)n4)cc3c2)c(OC[C@H]2C[C@H](O)CO2)cn1` [Example 609, (3S,5R)-5-[[4-[2-[(2,6-dimethylpyrimidin-4-yl)amino]pyrazolo[1,5-a]pyridin-5-yl]-6-methyl-3-pyridyl]oxymethyl]tetrahydrofuran-3-ol]: under setting [1], the IC50 turned out to be 0.0797 µM.
Regarding `Cc1cc(-c2ccn3nc(Nc4cnccn4)cc3c2)c(OC[C@H]2CN(C)CCO2)cn1` [Example 611, 5-[2-methyl-5-[[(2R)-4-methylmorpholin-2-yl]methoxy]-4-pyridyl]-N-pyrazin-2-yl-pyrazolo[1,5-a]pyridin-2-amine], under setting [1], the IC50 stood at 0.116 µM.
On to `Cc1cc(-c2ccn3nc(Nc4ccc(C)nn4)cc3c2)c(OCC(C)(C)O)cn1` [Example 612, 2-methyl-1-[[6-methyl-4-[2-[(6-methylpyridazin-3-yl)amino]pyrazolo[1,5-a]pyridin-5-yl]-3-pyridyl]oxy]propan-2-ol], for which the IC50 under setting [1] was determined as 0.115 µM.
On to `Cc1cc(-c2ccn3nc(Nc4cnc(C(C)(C)C)cn4)cc3c2)c(OCC(C)(C)O)cn1` [Example 613, 1-[[4-[2-[(5-tert-butylpyrazin-2-yl)amino]pyrazolo[1,5-a]pyridin-5-yl]-6-methyl-3-pyridyl]oxy]-2-methyl-propan-2-ol], for which the 50% inhibitory concentration (IC50) under setting [1] was 0.1 µM.
Regarding `Cc1cc(-c2ccn3nc(Nc4cc(F)c(C(=O)NC5CC5)c(F)c4)cc3c2)c(O[C@H]2CC[C@H](O)CC2)cn1` [Example 614, N-cyclopropyl-2,6-difluoro-4-[[5-[5-(4-hydroxycyclohexoxy)-2-methyl-4-pyridyl]pyrazolo[1,5-a]pyridin-2-yl]amino]benzamide], the IC50 under setting [1] was determined as 0.0879 µM.
Still for that read-out and setting: in the case of `CCN1CC[C@@H](COc2cnc(C#N)cc2-c2ccn3nc(NC(=O)C4CC4)cc3c2)C1` [Example 616, N-[5-[2-cyano-5-[[(3R)-1-ethylpyrrolidin-3-yl]methoxy]-4-pyridyl]pyrazolo[1,5-a]pyridin-2-yl]cyclopropanecarboxamide] it was 0.00103 µM.
For `Cc1cc(-c2ccn3nc(NC(=O)C4(F)CC4)cc3c2)c(OC[C@H]2CCN2C)cn1` [Example 623, 1-fluoro-N-[5-[2-methyl-5-[[(2R)-1-methylazetidin-2-yl]methoxy]-4-pyridyl]pyrazolo[1,5-a]pyridin-2-yl]cyclopropanecarboxamide], the half-maximal inhibitory concentration (IC50) stood at 0.00644 µM.
`Cc1cc(-c2ccn3nc(NC(=O)C4CC4(F)F)cc3c2)c(OC[C@H]2CCN2C)cn1` (stereo partly drawn) [Example 624, 2,2-difluoro-N-[5-[2-methyl-5-[[(2R)-1-methylazetidin-2-yl]methoxy]-4-pyridyl]pyrazolo[1,5-a]pyridin-2-yl]cyclopropanecarboxamide] showed an IC50 of 0.00329 µM.
Same read-out and setting: in the case of `Cc1cc(Nc2cc3cc(-c4cc(C(F)(F)F)ncc4OC[C@H]4CCN4C)ccn3n2)nc(C)n1` [Example 625, N-(2,6-dimethylpyrimidin-4-yl)-5-[5-[[(2R)-1-methylazetidin-2-yl]methoxy]-2-(trifluoromethyl)-4-pyridyl]pyrazolo[1,5-a]pyridin-2-amine] it was 0.73 µM.
Take `COc1cc(Nc2cc3cc(-c4cc(C)ncc4OCC(C)(C)O)ccn3n2)cc(OC)c1C(=O)NC1CC1` [Example 626, N-cyclopropyl-4-[[5-[5-(2-hydroxy-2-methyl-propoxy)-2-methyl-4-pyridyl]pyrazolo[1,5-a]pyridin-2-yl]amino]-2,6-dimethoxy-benzamide]: the IC50 under setting [1] is 0.0862 µM.
The compound `CC(=O)N1[C@@H]2COC[C@H]1C[C@@H](Oc1cnc(C)cc1-c1ccn3nc(Nc4cc(C)nc(C)n4)cc3c1)C2` [Example 627, 1-((1R,5S,7s)-7-((4-(2-((2,6-dimethylpyrimidin-4-yl)amino)pyrazolo[1,5-a]pyridin-5-yl)-6-methylpyridin-3-yl)oxy)-3-oxa-9-azabicyclo[3.3.1]nonan-9-yl)ethan-1-one] came in with an IC50 of 0.0651 µM.
In the case of `CC(=O)N1CCO[C@H](COc2cnc(C)cc2-c2ccn3nc(Nc4cc(C)nc(C)n4)cc3c2)C1` [Example 628, 1-[(2S)-2-[[4-[2-[(2,6-dimethylpyrimidin-4-yl)amino]pyrazolo[1,5-a]pyridin-5-yl]-6-methyl-3-pyridyl]oxymethyl]morpholin-4-yl]ethanone], under setting [1], the half-maximal inhibitory concentration (IC50) turned out to be 0.755 µM.
As to `Cc1cc(-c2ccn3nc(Nc4cc(C)nc(C)n4)cc3c2)c(OC[C@@H]2CN(S(C)(=O)=O)CCO2)cn1` [Example 629, N-(2,6-dimethylpyrimidin-4-yl)-5-[2-methyl-5-[[(2S)-4-methylsulfonylmorpholin-2-yl]methoxy]-4-pyridyl]pyrazolo[1,5-a]pyridin-2-amine], under setting [1], the IC50 was 0.175 µM.
In turn, `Cc1cc(-c2ccn3nc(Nc4ccnc(C)n4)cc3c2)c(O[C@H]2C[C@H]3COC[C@@H](C2)N3S(C)(=O)=O)cn1` [Example 630] showed an IC50 of 1.18 µM.
In turn, `CNC(=O)c1ccnc(Nc2cc3cc(-c4cc(C)ncc4O[C@H]4C[C@H]5COC[C@@H](C4)N5C(C)=O)ccn3n2)c1` [Example 631, 2-((5-(5-(((1R,5S,7s)-9-acetyl-3-oxa-9-azabicyclo[3.3.1]nonan-7-yl)oxy)-2-methylpyridin-4-yl)pyrazolo[1,5-a]pyridin-2-yl)amino)-N-methylisonicotinamide] registered an IC50 of 0.0771 µM.
